Experimental data: patent publication US10227312B2, “Glucosylceramide synthase inhibitors for the treatment of diseases” (BIOMARIN PHARMACEUTICAL INC., priority 2015, dated 2019)

Experiments:
[1] = molecular target: glucosylceramide synthase (GCS) (Canis lupus familiaris, UniProt A0A8I3MXG6); experiment: GCS Enzymatic Assay (MDCK lysates); format: biochemical, canine; conditions: MDCK cell lysate, C6-NBD-Ceramide, 37° C. for 1 hour, LC/MS; read-out: Assay 1 (Enzyme Assay; MDCK lysates) IC50
Protocol: Madin-Darby canine kidney (MDCK) cell lysate was prepared using M-PER Mammalian Protein Extraction Reagent (Thermal Scientific) in the presence of a protease inhibitor cocktail (Roche). Protein concentration was determined using BCA assay kit (Pierce). […] 0.1% DMSO was used as mock treatment or control. The reaction was terminated by adding 100 μL acetonitrile solution and subjected to LC/MS analysis.
The quantitative analysis of NBD-Ceramide and glucosylceramide was performed on a Shimadzu ultra-fast liquid chromatography (Shimadzu, Japan) coupled with API 4000 triple quadrupole mass spectrometer (Applied Biosystems, Concord, Ontario, Canada). Sample separation was conducted on a Waters Xbridge™ BEH130 C18, 100 mm×4.6 mm i.d, 3.5 μm (Milford, Mass., USA). The mobile phase consisted of water and acetonitrile supplemented with 0.1% formic acid (v/v). The flow rate was 1.0 mL/min. The initial mobile phase was 20% acetonitrile and was ramped in a linear fashion to 50% acetonitrile in 0.4 min. From 0.4 to 1.5 min, the gradient was ramped to 98% acetonitrile, and then was held at […] until 8.0 min. Acetonitrile was reset to 20% in 1.5 min, and maintained until 10.0 min. The total run time was 10.0 min. The MS/MS detection was performed in ESI positive mode. […] The cell lysate was diluted with equal volume of acetonitrile. Aliquots of 50 μL diluted samples were added to 1.5 mL tubes, and 100 μL of acetonitrile containing internal standard (100 ng/mL tolbutamide) were added for protein precipitation. The mixture were vortexed and then centrifuged at 13000 rpm for 10 min. 70 μL of supernatant were mixed with 140 μL of H2O and the final solution were injected for LC/MS/MS analysis and IC50's and/or percent inhibitions calculated.

K562 cells = experiment: K562 Cell-Based Assay; conditions: Homo sapiens, NBD-Ceramide, LCMS, read-out: Assay 2 (Cellular Assay; K562 cells) IC50
Protocol: This assay was modified based on the study by Gupta et al. (J. Lipid Res. 2010, 51, 866). K562 cells were seeded into 12-well plates at 3×10^5 cells/well/mL in RPMI-1640 medium with 5% FBS and incubated at 37° C. for 24 h. One μL of a compound described herein at desired concentration (10 mM, 1 mM, 0.1 mM, 0.01 mM, 0.001 mM and 0.0001 mM in DMSO) or DMSO was added into the corresponding well and mixed. Cells were incubated at 37° C. for 4 h. Then 100 μL of RPMI-1640 medium containing 110 μM of NBD-Ceramide, 11% BSA, 5% FBS, and corresponding concentration of a compound described herein was added into each well and mixed. Cells were incubated for additional 0.5 h at 37° C., followed by washing the cells with ice-cold PBS (pH 7.4) twice with centrifugation and resuspended with 50 μL cold PBS+1% Triton X-100. The cell lysate was sonicated for 15 min before adding equal volume of methanol for LCMS analysis. A small aliquot of cell lysate was used to determine protein concentration by BCA assay kit. The HPLC equipment and methods used in Assay 1 were used in this assay as well and IC50's were calculated.

Sequence of glucosylceramide synthase (GCS) (A0A8I3MXG6 1-394): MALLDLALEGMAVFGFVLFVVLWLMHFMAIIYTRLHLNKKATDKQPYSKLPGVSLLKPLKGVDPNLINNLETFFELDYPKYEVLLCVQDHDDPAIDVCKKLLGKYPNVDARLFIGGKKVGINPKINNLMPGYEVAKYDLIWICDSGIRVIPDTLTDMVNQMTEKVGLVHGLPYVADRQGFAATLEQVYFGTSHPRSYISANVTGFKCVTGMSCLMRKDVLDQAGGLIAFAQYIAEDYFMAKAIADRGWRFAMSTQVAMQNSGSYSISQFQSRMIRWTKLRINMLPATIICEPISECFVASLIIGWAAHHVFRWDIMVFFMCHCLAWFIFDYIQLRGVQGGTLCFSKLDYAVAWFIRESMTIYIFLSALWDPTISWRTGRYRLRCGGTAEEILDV

Row | SMILES | IC50 [1] [nM] | IC50 (K562 cells) [nM]
1 | O=C(N[C@H](CN1CCCC1)[C@H](O)c1ccc(OC2CC2)c(F)c1)C1=NCCc2cc(-c3ccc(F)cc3)ccc21 [Example 38, N-((1R,2R)-1-(4-cyclopropoxy-3-fluorophenyl)-1-hydroxy-3-(pyrrolidin-1-yl)propan-2-yl)-6-(4-fluorophenyl)-3,4-dihydroisoquinoline-1-carboxamide] | 10 to 100 | ≤ 10
2 | CN(C(=O)C1=NCCc2cc(-c3ccc(F)cc3)ccc21)[C@H](CN1CCCC1)[C@H](O)c1ccc(OC2CC2)c(Cl)c1 [Example 39, N-((1R,2R)-1-(3-chloro-4-cyclopropoxyphenyl)-1-hydroxy-3-(pyrrolidin-1-yl)propan-2-yl)-6-(4-fluorophenyl)-N-methyl-3,4-dihydroisoquinoline-1-carboxamide] | 10 to 100 | ≤ 10
3 | O=C(N[C@H](CN1CCCC1)[C@H](O)c1ccc(OC2CC2)cc1)C1=NOCc2c1ccc1sc(Cl)cc21 [Example 44, 8-chloro-N-((1R,2R)-1-(4-cyclopropoxyphenyl)-1-hydroxy-3-(pyrrolidin-1-yl)propan-2-yl)-1H-thieno[3′,2′:3,4]benzo[1,2-d][1,2]oxazine-4-carboxamide] | 10 to 100 | ≤ 10
4 | O=C(N[C@H](CN1CCCC1)[C@H](O)c1ccc(OC2CC2)c(F)c1)C1=NOCc2c1ccc1cc(Cl)sc21 [Example 47, 2-chloro-N-((1R,2R)-1-(4-cyclopropoxy-3-fluorophenyl)-1-hydroxy-3-(pyrrolidin-1-yl)propan-2-yl)-9H-thieno[2′,3′:3,4]benzo[1,2-d][1,2]oxazine-6-carboxamide] | < 10 | ≤ 10

Second part, the molecule after the results:

Row | IC50 [1] [nM] | IC50 (K562 cells) [nM] | SMILES
5 | < 10 | 10 to 100 | O=C(N[C@H](CN1CCCC1)[C@H](O)c1ccc(OC2CC2)c(Cl)c1)C1=NOCc2c1ccc1ncccc21 [Example 36, N-((1R,2R)-1-(3-chloro-4-cyclopropoxyphenyl)-1-hydroxy-3-(pyrrolidin-1-yl)propan-2-yl)-1H-[1,2]oxazino[5,4-f]quinoline-4-carboxamide]
6 | < 10 | ≤ 10 | O=C(N[C@H](CN1CCCC1)[C@H](O)c1ccc(OC2CC2)c(Cl)c1)C1=NOCc2c1ccc1cc(Cl)sc21 [Example 37, 2-chloro-N-((1R,2R)-1-(3-chloro-4-cyclopropoxyphenyl)-1-hydroxy-3-(pyrrolidin-1-yl)propan-2-yl)-9H-thieno[2′,3′:3,4]benzo[1,2-d][1,2]oxazine-6-carboxamide]
7 | < 10 | 10 to 100 | O=C(N[C@H](CN1CCCC1)[C@H](O)c1ccc(OC2CC2)c(Cl)c1)C1=NOCc2cc(OCC3CCCCC3)ccc21 [Example 45, N-((1R,2R)-1-(3-chloro-4-cyclopropoxyphenyl)-1-hydroxy-3-(pyrrolidin-1-yl)propan-2-yl)-7-(cyclohexylmethoxy)-1H-benzo[d][1,2]oxazine-4-carboxamide]
8 | < 10 | ≤ 10 | Cn1ncc2ccc3c(c21)CON=C3C(=O)N[C@H](CN1CCCC1)[C@H](O)c1ccc(OC2CC2)c(F)c1 [Example 46, N-((1R,2R)-1-(4-cyclopropoxy-3-fluorophenyl)-1-hydroxy-3-(pyrrolidin-1-yl)propan-2-yl)-1-methyl-1,9-dihydro[1,2]oxazino[4,5-g]indazole-6-carboxamide]
